In US6191288A, “Pyronin antibacterials, process and novel intermediates thereto” (Anadys Pharmaceuticals, Inc., priority 1999, dated 2001):
In brackets after ≈: the same amount, converted by molar mass. Like-named read-outs stand apart in the source and are kept apart here.

Columns and labels:
[1] = test system: S. aureus; assay: MBC, S. aureus; type: cell-based; conditions: Staphylococcus aureus, Table II
Description: (§1) The minimum bactericidal concentration (MBC) is defined as the concentration of antimicrobial agent from which no colonies grow on petri plates or in the medium. In practice, the MBC is arbitrarily defined as the concentration at which a 1000-fold reduction in colony forming units is observed with respect to the original inoculum (survival of 0. 1%). The broth dilution method consists of inoculating the wells from an MIC microliter plate using a 96-well inoculation grid into a fresh microliter plate containing 100 μl. Mueller-Hinton broth per well. The MBC plates are incubated at 37° C. for 16-20 hrs and the MBC values are determined.

[2] = molecular target: S. aureus RNAP (Staphylococcus aureus, UniProt P47768+Q2G0N5); assay: In vitro transcription assay, S. aureus RNAP; type: biochemical
Method: (§2) In vitro transcription reactions. [α-^32 P] UTP-incorporated RNA was synthesized in 50 μl reaction volumes containing transcription buffer (50 mM Tris-HCl, pH 8.0, 200 mM KCL, 10 mM MgCl2, 10 mM DTT and 1.5 μM BSA), […] of DNA template, 4 μM UTP containing 5 μl of [α-^32 P] UTP, 400 μM each of ATP, GTP, and CTP. After incubation for 60 minutes at 25 ° C., the reaction is terminated with 100 μl 10% TCA, which also recipitates the newly transcribed RNA.

[3] = test system: E. coli; assay: MBC, E. coli; type: cell-based; conditions: Escherichia coli
Description: as §1

[4] = molecular target: E. coli RNA polymerase (Escherichia coli, UniProt P0A8T7+P0A8V2); assay: In vitro transcription assay, E. coli RNA polymerase; type: biochemical; conditions: for Relative potency in the in vitro transcription assay using E. coli RNA polymerase: FIGS. 20a,b, comparison in words; for IC50: Table II, in vitro transcription, read-out: IC50 E. coli (source of polymerase) (converted)
Method: as §2

[5] = test system: E. coli; assay: Microdilution MIC, E. coli; type: cell-based; conditions: Escherichia coli
Method: (§3) Different dilutions are performed for natural product extracts.

[6] = molecular target: Human RNAP (Homo sapiens, UniProt P24928+P30876); assay: biochemical; conditions: Table II, in vitro transcription; read-out: IC50 human pol II
Method: as §2

[7] = test system: M. catarrhalis; assay: MIC, M. catarrhalis; type: cell-based; conditions: Moraxella catarrhalis
Method: as §3

[8] = test system: K. pneumoniae; assay: MIC, K. pneumoniae; type: cell-based; conditions: Klebsiella pneumoniae
Method: as §3

[9] = test system: M. luteus; assay: MIC, M. luteus; type: cell-based; conditions: Micrococcus luteus; M. luteus ATCC9341
Method: as §3

[10] = test system: S. epidermidis; assay: MIC, S. epidermidis; type: cell-based; conditions: Staphylococcus epidermidis, MRSE, E-R
Method: as §3

[11] = test system: S. pneumonia; assay: MIC, S. pneumonia; type: cell-based
Method: as §3

[12] = test system: E. cloacae; assay: MIC, E. cloacae; type: cell-based; conditions: Enterobacter cloacae
Method: as §3

[13] = test system: S. aureus; assay: Microdilution MIC, S. aureus; type: cell-based
Method: as §3

[14] = test system: H. influenzae; assay: MIC, H. influenzae; type: cell-based; conditions: Haemophilus influenzae
Method: as §3

[15] = test system: E. faecalis; assay: MIC, E. faecalis; type: cell-based
Method: as §3

[16] = test system: E. faecium; assay: MIC, E. faecium; type: cell-based; conditions: E. faecium Pen-R
Method: as §3

[17] = test system: P. aeruginosa; assay: MIC, P. aeruginosa; type: cell-based; conditions: Pseudomonas aeruginosa
Method: as §3

[18] = test system: myxopyronin-, rifampicin-, and streptolydigin-resistant S. aureus; assay: Growth (optical density at 595 nm) of drug-resistant S. aureus cultured with each drug (FIG. 22); type: cell-based; conditions: FIG. 22, absorbance at 595 nm
Method: FIG. 22 is a bar graph showing the growth of bacterial cultures, measured by its optical density as measured by absorbance of light at 595 nanometers, after bacteria resistant to myxopyronins, rifampicin, and streptolydigin were cultured in the presence of each of these drugs.
The site of action of the myxopyronins on RNA polymerase was investigated by assessing the growth of myxopyronin-, rifampicin-, and streptolydigin-resistant S. aureus in the presence of the 90/10 myxopyronin A/B mixture.

[19] = test system: rifampicin susceptible and rifampicin resistant strains; assay: microbe, parasite or virus in culture
Method: The MIC is reported as a range between the concentration at which no growth is observed and the concentration of the dilution which immediately followed. Selected inhibitors from the RNA polymerase screen described above were tested for their ability to inhibit bacterial growth in a broth microdilution assay as follows. […] Dilution of antimicrobial agents is performed in a sterile, covered 96-well microliter plate with flat bottom wells (Costar #9017), and each well contains 100 μL of both +/-antimicrobial agent. The final concentrations of the small molecule antimicrobial agents are 100, 50, 25, 12.5, 6.25, 3.12, 1.56, 0.78, 0.39, 0.20, 0.10, and 0.05 μg/mL, respectively. Different dilutions are performed for natural product extracts. They are first diluted 100-fold with Mueller-Hinton broth. The final dilutions of the natural product extracts are 200, 400, 800, 1600, 3200, 6400, 12800, 25600, 51200, 1×105, 2×105, and 4 ×105-fold. A 1% DMSO (no-drug) row is prepared in Mueller-Hinton broth as a control for 100% growth on each plate. A Mueller-Hinton broth only with no bacteria growth is also included as a negative control for each plate. Ampicillin and rifampicin are used as positive controls against all bacterial strains in every experiment.
The overnight culture of a single colony is diluted in sterile Mueller-Hinton broth so that, after inoculation, each well contains approximately 5×10^5 CFU/mL. Within 15 minutes of preparation, […] of the adjusted inoculum suspension is added to the microliter plate. Each well is diluted with an equal volume of the antimicrobial agent/control substance diluted with sterile Mueller-Hinton broth. The inoculated microliter plate is incubated at 35° C. for 16-20 hours. The turbidity of each well is determined by measuring the absorbance at 595 nm on the BioRad Model 3550-UV microplate reader. The rows containing broth only (no cells) serve as a control, and the rows containing the titration of 1% DMSO serve as a control for 100% growth. The average of the broth only controls is subtracted from the average of each duplicate. This value is subsequently normalized to the average of the DMSO controls.

[20] = rifampicin-resistant S. aureus, read-out: MBC rifR-S. aureus
[21] = Table II, read-out: MBC E. coli
[22] = read-out: MIC E. coli*, Table II, mutant strain that has permeabilized cell wall

Chain of E. coli RNA polymerase (P0A8V2 whole entry): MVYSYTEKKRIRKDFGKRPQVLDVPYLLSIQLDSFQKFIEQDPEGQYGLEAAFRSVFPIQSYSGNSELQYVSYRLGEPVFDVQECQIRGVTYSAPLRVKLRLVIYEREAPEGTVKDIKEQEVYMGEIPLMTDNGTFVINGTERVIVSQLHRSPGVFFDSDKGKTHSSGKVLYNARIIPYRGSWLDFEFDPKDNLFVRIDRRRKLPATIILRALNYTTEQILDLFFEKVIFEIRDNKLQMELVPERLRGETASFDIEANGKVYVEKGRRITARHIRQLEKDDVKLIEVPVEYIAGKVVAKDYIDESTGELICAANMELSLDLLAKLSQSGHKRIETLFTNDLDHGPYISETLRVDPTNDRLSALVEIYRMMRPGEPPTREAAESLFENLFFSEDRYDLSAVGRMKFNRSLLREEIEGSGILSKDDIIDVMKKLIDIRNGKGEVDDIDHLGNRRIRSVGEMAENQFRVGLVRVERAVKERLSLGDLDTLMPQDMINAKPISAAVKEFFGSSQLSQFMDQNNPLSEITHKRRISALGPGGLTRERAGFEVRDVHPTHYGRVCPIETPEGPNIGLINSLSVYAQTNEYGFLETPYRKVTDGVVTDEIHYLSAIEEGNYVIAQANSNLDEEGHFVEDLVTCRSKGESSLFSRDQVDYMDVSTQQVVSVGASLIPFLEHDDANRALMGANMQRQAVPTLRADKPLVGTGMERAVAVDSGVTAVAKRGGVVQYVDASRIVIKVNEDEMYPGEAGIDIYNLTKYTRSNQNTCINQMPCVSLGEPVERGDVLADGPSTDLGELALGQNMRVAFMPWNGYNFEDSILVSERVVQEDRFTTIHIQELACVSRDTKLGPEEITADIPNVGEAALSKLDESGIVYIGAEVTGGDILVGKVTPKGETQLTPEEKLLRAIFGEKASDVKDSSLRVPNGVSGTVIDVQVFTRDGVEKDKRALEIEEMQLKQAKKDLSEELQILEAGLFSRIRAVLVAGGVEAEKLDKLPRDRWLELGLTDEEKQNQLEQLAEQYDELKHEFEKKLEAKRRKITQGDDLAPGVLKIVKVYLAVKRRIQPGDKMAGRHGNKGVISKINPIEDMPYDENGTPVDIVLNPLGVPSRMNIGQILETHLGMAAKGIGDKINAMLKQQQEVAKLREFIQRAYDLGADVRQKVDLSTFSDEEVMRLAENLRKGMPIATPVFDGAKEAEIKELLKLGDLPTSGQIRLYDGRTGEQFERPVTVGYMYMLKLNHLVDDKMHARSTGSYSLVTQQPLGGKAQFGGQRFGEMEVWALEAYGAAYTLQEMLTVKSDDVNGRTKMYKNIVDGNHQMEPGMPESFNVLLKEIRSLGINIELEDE
Chain of E. coli RNA polymerase (P0A8T7 whole entry): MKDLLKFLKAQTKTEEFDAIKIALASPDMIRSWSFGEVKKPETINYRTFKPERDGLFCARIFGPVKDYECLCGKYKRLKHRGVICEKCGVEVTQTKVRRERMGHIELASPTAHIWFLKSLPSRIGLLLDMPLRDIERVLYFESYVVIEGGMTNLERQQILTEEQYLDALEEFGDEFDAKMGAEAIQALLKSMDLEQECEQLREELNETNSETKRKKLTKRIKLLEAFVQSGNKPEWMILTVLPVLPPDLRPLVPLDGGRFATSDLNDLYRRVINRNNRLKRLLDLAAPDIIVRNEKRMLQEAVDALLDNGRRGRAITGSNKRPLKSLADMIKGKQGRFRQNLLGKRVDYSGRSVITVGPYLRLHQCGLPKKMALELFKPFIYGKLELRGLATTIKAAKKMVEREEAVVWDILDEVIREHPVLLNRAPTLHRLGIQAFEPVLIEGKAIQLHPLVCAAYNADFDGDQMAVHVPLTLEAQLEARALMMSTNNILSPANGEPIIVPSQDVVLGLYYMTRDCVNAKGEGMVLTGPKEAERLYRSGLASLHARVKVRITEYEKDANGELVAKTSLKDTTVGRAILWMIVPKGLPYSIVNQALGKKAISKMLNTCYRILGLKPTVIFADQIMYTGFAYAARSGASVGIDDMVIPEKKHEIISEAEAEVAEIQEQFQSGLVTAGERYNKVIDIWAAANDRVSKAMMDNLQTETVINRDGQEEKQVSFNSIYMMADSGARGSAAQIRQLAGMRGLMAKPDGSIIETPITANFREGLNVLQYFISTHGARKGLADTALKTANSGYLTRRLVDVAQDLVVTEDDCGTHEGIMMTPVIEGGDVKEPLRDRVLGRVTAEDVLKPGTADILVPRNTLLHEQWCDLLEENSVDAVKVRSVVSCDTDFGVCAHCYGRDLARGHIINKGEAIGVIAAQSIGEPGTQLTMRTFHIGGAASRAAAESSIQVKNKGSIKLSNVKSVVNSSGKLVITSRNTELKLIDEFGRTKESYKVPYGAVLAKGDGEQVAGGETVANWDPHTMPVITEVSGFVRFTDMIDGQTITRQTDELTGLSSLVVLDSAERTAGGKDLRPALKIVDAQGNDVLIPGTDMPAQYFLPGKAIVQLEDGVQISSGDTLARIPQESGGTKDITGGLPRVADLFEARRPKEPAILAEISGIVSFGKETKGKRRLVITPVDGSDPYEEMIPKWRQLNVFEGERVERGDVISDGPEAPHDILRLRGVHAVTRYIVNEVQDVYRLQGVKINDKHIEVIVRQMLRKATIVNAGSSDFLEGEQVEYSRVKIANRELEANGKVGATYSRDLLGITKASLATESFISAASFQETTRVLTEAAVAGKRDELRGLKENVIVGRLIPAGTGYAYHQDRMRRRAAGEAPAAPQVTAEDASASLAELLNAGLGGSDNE
Chain of E. coli RNA polymerase (P0A7Z4 whole entry partner): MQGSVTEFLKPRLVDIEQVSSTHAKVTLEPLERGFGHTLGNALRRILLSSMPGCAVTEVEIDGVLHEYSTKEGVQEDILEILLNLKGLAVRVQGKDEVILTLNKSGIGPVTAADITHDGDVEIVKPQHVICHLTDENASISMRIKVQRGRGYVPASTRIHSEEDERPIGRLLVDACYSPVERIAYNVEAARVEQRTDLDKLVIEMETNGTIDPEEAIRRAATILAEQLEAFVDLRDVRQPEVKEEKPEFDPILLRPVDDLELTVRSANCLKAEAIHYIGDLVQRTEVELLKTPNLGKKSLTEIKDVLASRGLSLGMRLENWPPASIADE
Chain of E. coli RNA polymerase (P0A800 whole entry partner): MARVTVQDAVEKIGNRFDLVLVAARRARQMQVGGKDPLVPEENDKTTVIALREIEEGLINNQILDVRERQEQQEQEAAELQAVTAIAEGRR

## CCC/C(C)=C/C=C(\C)C(=O)c1c(O)cc(C(C)CC/C=C/NC(=O)OC)oc1=O (racemic) [MYXO A, (±)-Myxopyronin A]
[1]; read-out: MBC S. aureus
  MBC: 15 µg/mL (≈ 35.9 µM)
[1]; [20]
  MBC: 15 µg/mL (≈ 35.9 µM)
[2]
  IC50: 24 µM
[3]; read-out: MBC E. coli*
  MBC: > 30 µg/mL
[3]; [21]
  MBC: > 30 µg/mL
[4]
  Relative potency in the in vitro transcription assay using E. coli RNA polymerase: equally potent as the natural product mixtures
  IC50: 7.19 µM
[5]; [22]
  MIC: 8 µg/mL (≈ 19.2 µM)
[6]
  IC50: > 144 µM

## CCCC/C(C)=C/C=C(\C)C(=O)c1c(O)cc(C(C)CC/C=C/NC(=O)OC)oc1=O (racemic) [MYXO B, (±)-myxopyronin B]
[7]; M. catarrhalis beta lactamase negative
  MIC: 0.5 µg/mL (≈ 1.16 µM)
[7]; M. catarrhalis beta lactamase positive
  MIC: 1 µg/mL (≈ 2.32 µM)
[1]; read-out: MBC S. aureus
  MBC: 0.4 µg/mL (≈ 0.927 µM)
[1]; [20]
  MBC: 0.4 µg/mL (≈ 0.927 µM)
[8]
  MIC: > 64 µg/mL
[9]
  MIC: 8 µg/mL (≈ 18.5 µM)
[2]
  IC50: 1.39 µM
[10]; CC-R
  MIC: 1 µg/mL (≈ 2.32 µM)
[10]; CC-S
  MIC: 4 µg/mL (≈ 9.27 µM)
[3]; read-out: MBC E. coli*
  MBC: 0.2 µg/mL (≈ 0.463 µM)
[3]; [21]
  MBC: > 100 µg/mL
[11]; S. pneumonia ATCC49619
  MIC: 8 µg/mL (≈ 18.5 µM)
[11]; S. pneumonia Pen I (MIC 0.12)
  MIC: 8 µg/mL (≈ 18.5 µM)
[11]; S. pneumonia Pen I (MIC 0.25)
  MIC: 8 µg/mL (≈ 18.5 µM)
[11]; S. pneumonia Pen I (MIC 1.0)
  MIC: 8 µg/mL (≈ 18.5 µM)
[11]; S. pneumonia Pen R (MIC 2.0)
  MIC: 16 µg/mL (≈ 37.1 µM)
[11]; S. pneumonia Pen R (MIC 4.0)
  MIC: 8 µg/mL (≈ 18.5 µM)
[11]; S. pneumonia Pen S (MIC <0.06)
  MIC: 8 µg/mL (≈ 18.5 µM)
[12]
  MIC: > 64 µg/mL
[4]
  Relative potency in the in vitro transcription assay using E. coli RNA polymerase: more potent molecule than A
  IC50: 1.85 µM
[13]; S. aureus MRSA, E-S, CC-S
  MIC: 1 µg/mL (≈ 2.32 µM)
[13]; Staphylococcus aureus, ATCC25923, S. aureus ATCC25923, read-out: MIC
  MIC: 1 µg/mL (≈ 2.32 µM)
[13]; Staphylococcus aureus, ATCC29213, S. aureus ATCC29213, read-out: MIC
  MIC: 1 µg/mL (≈ 2.32 µM)
[13]; Staphylococcus aureus, MRSA, S. aureus MRSA, E-R, CC-S, read-out: MIC
  MIC: 1 µg/mL (≈ 2.32 µM)
[13]; Staphylococcus aureus, Table II, read-out: MIC S. aureus
  MIC: 0.4 µg/mL (≈ 0.927 µM)
[13]; Staphylococcus aureus, Table II, rifampicin-resistant S. aureus, read-out: MIC rifR-S. aureus
  MIC: 0.2 µg/mL (≈ 0.463 µM)
[13]; up to, over the bacteria of Table II
  Fold more potent cell-based (growth inhibitory) activity than myxopyronin A: up to 75 fold
[14]; ATCC49247, H. influenzae ATCC49247
  MIC: 2 µg/mL (≈ 4.63 µM)
[14]; H. influenzae non-typable
  MIC: 8 µg/mL (≈ 18.5 µM)
[15]; E. faecalis Pen-S, Vanco-S
  MIC: 16 µg/mL (≈ 37.1 µM)
[15]; Enterococcus faecalis, ATCC29212, E. faecalis ATCC29212, read-out: MIC
  MIC: 16 µg/mL (≈ 37.1 µM)
[15]; Enterococcus faecalis, E. faecalis Pen-R, Vanco-S, read-out: MIC
  MIC: 8 µg/mL (≈ 18.5 µM)
[15]; Enterococcus faecalis, E. faecalis Pen-S, Vanco-S, read-out: MIC
  MIC: 32 µg/mL (≈ 74.2 µM)
[16]; Vanco-R
  MIC: > 64 µg/mL
[16]; Vanco-S
  MIC: > 64 µg/mL
[16]; Enterococcus faecium, Vanco-R, read-out: MIC
  MIC: 64 µg/mL (≈ 148 µM)
[16]; Enterococcus faecium, Vanco-S, read-out: MIC
  MIC: 64 µg/mL (≈ 148 µM)
[5]; ATCC25922, Table III, E. coli ATCC25922, read-out: MIC
  MIC: > 64 µg/mL
[5]; Table III, E. coli parent (non-permeable), read-out: MIC
  MIC: > 64 µg/mL
[5]; Table III, E. coli permeable, read-out: MIC
  MIC: 1 µg/mL (≈ 2.32 µM)
[5]; [22]
  MIC: 0.4 µg/mL (≈ 0.927 µM)
[5]; Table II, read-out: MIC E. coli
  MIC: > 100 µg/mL
[6]
  IC50: > 139 µM
[17]; P. aeruginosa ATCC27853
  MIC: > 64 µg/mL
[17]; P. aeruginosa, strain not named
  MIC: > 64 µg/mL

## CO[C@H]1/C=C/O[C@@]2(C)Oc3c(C)c(O)c4c(O)c(c(/C=N/N5CCN(C)CC5)c(O)c4c3C2=O)NC(=O)/C(C)=C\C=C\[C@H](C)[C@H](O)[C@@H](C)[C@@H](O)[C@@H](C)[C@H](OC(C)=O)[C@@H]1C [rifampicin]
[18]
  Growth of myxopyronin resistant S. aureus strain in the presence of the drug: inhibits growth
  Growth of rifampicin resistant S. aureus strain in the presence of the drug: continues to grow
  Growth of streptolydigin-resistant S. aureus strain in the presence of the drug: inhibited
[19]; read-out: MIC against resistant strains, background statement b17
  MIC: > 10 µM
[19]; read-out: MIC against rifampicin resistant strains, Example 11, b337
  MIC: > 100 µM
[19]; read-out: MIC against susceptible strains, Example 11, b337
  MIC: 10 µM (≈ 8.23 µg/mL)
[19]; read-out: MIC against susceptible strains, background statement b17
  MIC: ~0.01 µM (≈ 0.00823 µg/mL)

## CNC(=O)[C@@H](C)[C@H]1C(=O)/C(=C(O)/C=C/C(C)=C/[C@@H](C)[C@H]2O[C@@]3(C)O[C@H](C=C[C@@]34CO4)[C@@H]2C)C(=O)N1[C@@H]1CC[C@H](O)[C@H](C)O1 [streptolydigin]
[18]
  Growth of myxopyronin resistant S. aureus strain in the presence of the drug: inhibits growth
  Growth of rifampicin resistant S. aureus strain in the presence of the drug: inhibits growth
  Growth of streptolydigin-resistant S. aureus strain in the presence of the drug: continues to grow
